Where two headings read alike, the source gives them in different places.

The subject of one series is Orm1. As to the kind of experiment: Quantitative RT-PCR of Orm1 gene expression in the BALB/c 3T3 cell transformation assay. The class given is cell-based, mouse.
Another series concerns BALB/c 3T3 cells. Details: focus formation ability (intensity of the tumor-promoting activity): key to the marks not given beside the values.
The mark [1] stands for this setting: Example 3, MCA-initiated BALB/c 3T3 cells, RNA 48 hours after addition of test substance, normalized by β-actin.

Consider `CC(C)[C@@H]1CC[C@@H](C)C[C@H]1O` (racemic) [dl-menthol, DL-menthol], for which, in the series on Orm1 (setting [1]), the “Expression level of Orm1 (rates relative to the negative control)” value stood at 0.9. Also, in the series with BALB/c 3T3 cells, the “Focus formation in the BALB/c 3T3 cell transformation assay” value was “−” and the “ability to form foci in the BALB/c 3T3 cell transformation assay” value is recorded as “unable to form foci”.
Take `O=[N+]([O-])c1cccc2ccccc12` [1-nitronaphthalene]: in the series on BALB/c 3T3 cells, the “Focus formation in the BALB/c 3T3 cell transformation assay” value is recorded as “−” and the “ability to form foci in the BALB/c 3T3 cell transformation assay” value is on record as “unable to form foci”.
With `c1ccc2cc3c(ccc4ccccc43)cc2c1` [Benz[a]anthracen, benz[a]anthracene], in the series with BALB/c 3T3 cells, the “Focus formation in the BALB/c 3T3 cell transformation assay” value is reported as “−” and the “ability to form foci in the BALB/c 3T3 cell transformation assay” value was “unable to form foci”.
On to `c1ccc2c(c1)ccc1c3ccccc3ccc21` [Chrysene, chrysene], for which, in the series with BALB/c 3T3 cells, the “Focus formation in the BALB/c 3T3 cell transformation assay” value is given as “−” and the “ability to form foci in the BALB/c 3T3 cell transformation assay” value was “unable to form foci”. Further, the “ability to form foci in the Bhas cellular transformation assay” value in the series on Bhas cells is “able to form foci”.
In the case of `OC[C@@H](O)[C@@H](O)[C@H](O)[C@H](O)CO` [D-mannitol], in the series on BALB/c 3T3 cells, the “Focus formation in the BALB/c 3T3 cell transformation assay” value is given as “−” and the “ability to form foci in the BALB/c 3T3 cell transformation assay” value is reported as “unable to form foci”.
For `C[C@H](CCC(=O)O)[C@H]1CC[C@H]2[C@@H]3CC[C@@H]4C[C@H](O)CC[C@]4(C)[C@H]3CC[C@]12C` [Lithocholic acid, lithocholic acid], in the series with BALB/c 3T3 cells, the “Focus formation in the BALB/c 3T3 cell transformation assay” value is reported as “+” and the “ability to form foci in the BALB/c 3T3 cell transformation assay” value was “able to form foci”. In the series on Bhas cells, the “ability to form foci in the Bhas cellular transformation assay” value is “able to form foci”.
Regarding `C=C(C)[C@@]12O[C@@]3(c4ccccc4)O[C@@H]1[C@@H]1[C@@H]4O[C@]4(CO)[C@@H](O)[C@]4(O)C(=O)C(C)=C[C@H]4[C@@]1(O3)[C@H](C)[C@H]2OC(=O)/C=C/C=C/c1ccccc1` [Mezerein, mezerein], in the series with Orm1, the “Expression level of Orm1 (rates relative to the negative control)” value was 2.6. Moreover, in the series with BALB/c 3T3 cells, the “Focus formation in the BALB/c 3T3 cell transformation assay” value was “+”, the “ability to form foci in the BALB/c 3T3 cell transformation assay” value was “able to form foci” and the “focus formation ability (intensity of the tumor-promoting activity)” value (“focus formation ability” below) is recorded as “+++”. Moreover, the “ability to form foci in the Bhas cellular transformation assay” value in the series with Bhas cells was “able to form foci”.
With `C=C1[C@@H](O)[C@@H]2O[C@]3(CC[C@H](/C=C/[C@@H](C)[C@@H]4CC(C)=C[C@@]5(O[C@H](C[C@@](C)(O)C(=O)O)CC[C@H]5O)O4)O3)CC[C@H]2O[C@@H]1[C@@H](O)C[C@H](C)[C@H]1O[C@@]2(CCCCO2)CC[C@H]1C` [Okadaic acid, okadaic acid], in the series on BALB/c 3T3 cells, the “Focus formation in the BALB/c 3T3 cell transformation assay” value is recorded as “+”, the “ability to form foci in the BALB/c 3T3 cell transformation assay” value was “able to form foci” and the “focus formation ability” value is reported as “+++”.
Turning to `c1cc2cccc3c4cccc5cccc(c(c1)c23)c54` [Perylene, perylene], in the series on BALB/c 3T3 cells, the “Focus formation in the BALB/c 3T3 cell transformation assay” value is “−” and the “ability to form foci in the BALB/c 3T3 cell transformation assay” value is “unable to form foci”. The “ability to form foci in the Bhas cellular transformation assay” value in the series on Bhas cells is “able to form foci”.
Turning to `CCC1(c2ccccc2)C(=O)NC(=O)NC1=O` [Phenobarbital sodium, phenobarbital sodium], in the series on BALB/c 3T3 cells, the “Focus formation in the BALB/c 3T3 cell transformation assay” value was “+”, the “ability to form foci in the BALB/c 3T3 cell transformation assay” value is recorded as “able to form foci” and the “focus formation ability” value is given as “++”.
For the molecule `O=C1NS(=O)(=O)c2ccccc21.[Na]` [Saccharin sodium, saccharin sodium], in the series on BALB/c 3T3 cells, the “Focus formation in the BALB/c 3T3 cell transformation assay” value was “+”, the “ability to form foci in the BALB/c 3T3 cell transformation assay” value is recorded as “able to form foci” and the “focus formation ability” value was “++”.
With `O=[As]O` [Sodium arsenite, sodium arsenite], in the series on BALB/c 3T3 cells, the “Focus formation in the BALB/c 3T3 cell transformation assay” value is listed as “+”, the “ability to form foci in the BALB/c 3T3 cell transformation assay” value is listed as “able to form foci” and the “focus formation ability” value is “++”.
With `O=C1O[C@H]([C@@H](O)CO)C([O-])=C1O.[Na+]` [Sodium ascorbate, sodium ascorbate], in the series on BALB/c 3T3 cells, the “Focus formation in the BALB/c 3T3 cell transformation assay” value is given as “−” and the “ability to form foci in the BALB/c 3T3 cell transformation assay” value is reported as “unable to form foci”.
For `[Na+].[Na+].[Na+].[O]=[V]([O-])([O-])[O-]` [Sodium orthovanadate, sodium orthovanadate], the “Expression level of Orm1 (rates relative to the negative control)” value with Orm1 amounted to 1.5. Besides, in the series with BALB/c 3T3 cells, the “Focus formation in the BALB/c 3T3 cell transformation assay” value was “+”, the “ability to form foci in the BALB/c 3T3 cell transformation assay” value is listed as “able to form foci” and the “focus formation ability” value is recorded as “+++”.
`CC(C)(C)c1cc(O)ccc1O` [TBHQ, tert-butylhydroquinone]: in the series on BALB/c 3T3 cells, the “Focus formation in the BALB/c 3T3 cell transformation assay” value is reported as “−” and the “ability to form foci in the BALB/c 3T3 cell transformation assay” value was “unable to form foci”. Besides, in the series with Bhas cells, the “ability to form foci in the Bhas cellular transformation assay” value is on record as “able to form foci”.
For the molecule `CCCCCCCCCCCCCC(=O)O[C@@H]1[C@@H](C)[C@@]2(O)[C@@H](C=C(CO)C[C@]3(O)C(=O)C(C)=C[C@@H]23)[C@@H]2C(C)(C)[C@]12OC(C)=O` [TPA, phorbol 12-myristate 13-acetate], the “Expression level of Orm1 (rates relative to the negative control)” value with Orm1 is 2.3. In the series on BALB/c 3T3 cells, the “Focus formation in the BALB/c 3T3 cell transformation assay” value is recorded as “+”, the “ability to form foci in the BALB/c 3T3 cell transformation assay” value was “able to form foci”, the “focus formation ability” value is reported as “+++” and the “focus formation in the BALB/c 3T3 cell transformation assay” value is “Significant focus formation was observed”. Besides, the “ability to form foci in the Bhas cellular transformation assay” value in the series with Bhas cells is given as “able to form foci”.
For the molecule `[Cl-].[Cl-].[Zn+2]` [Zinc chloride, zinc chloride], in the series on Orm1, the “Expression level of Orm1 (rates relative to the negative control)” value is given as 3.4. In the series on BALB/c 3T3 cells, the “Focus formation in the BALB/c 3T3 cell transformation assay” value was “+”, the “ability to form foci in the BALB/c 3T3 cell transformation assay” value was “able to form foci”, the “focus formation ability” value is on record as “+++” and the “focus formation in the BALB/c 3T3 cell transformation assay” value is “Significant focus formation was observed”. In addition, the “ability to form foci in the Bhas cellular transformation assay” value with Bhas cells was “able to form foci”.
Take `COc1ccc(O)c(C(C)(C)C)c1` [butylhydroxyanisol]: the “focus formation ability” value in the series with BALB/c 3T3 cells is “++”.
insulin: the “Expression level of Orm1 (rates relative to the negative control)” value in the series on Orm1 (setting [1]) is 2.0. In the series with BALB/c 3T3 cells, the “Focus formation in the BALB/c 3T3 cell transformation assay” value is reported as “+”, the “ability to form foci in the BALB/c 3T3 cell transformation assay” value is given as “able to form foci” and the “focus formation ability” value is “++”. In addition, the “ability to form foci in the Bhas cellular transformation assay” value in the series with Bhas cells is “able to form foci”.

For the origin of these results see patent US20140065632A1, “MARKER GENE FOR DETECTION OF TUMOR PROMOTER, AND METHOD FOR DETECTION OF TUMOR PROMOTER” (priority 2007, published 2014).
